Data taken from ChEMBL document CHEMBL1135342, “Synthesis and evaluation of thymidine-5'-O-monophosphate analogues as inhibitors of Mycobacterium tuberculosis thymidylate kinase” (Bioorg Med Chem Lett, 2002).

Molecular target: T1, Thymidylate kinase (Mycobacterium tuberculosis) (UniProt P9WKE1)
T1 sequence (whole entry): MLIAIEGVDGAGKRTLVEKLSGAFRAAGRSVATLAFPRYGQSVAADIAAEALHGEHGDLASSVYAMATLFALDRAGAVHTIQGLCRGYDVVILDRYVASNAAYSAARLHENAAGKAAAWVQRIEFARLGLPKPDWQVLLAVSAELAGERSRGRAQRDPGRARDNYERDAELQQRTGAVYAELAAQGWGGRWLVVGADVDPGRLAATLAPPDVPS
Assay: Enzyme Kinetic constant was determined in the presence of Mycobacterium tuberculosis thymidine monophosphate kinase

## O=c1[nH]c(=O)n([C@H]2C[C@H](O)[C@@H](COP(=O)(O)O)O2)cc1Br
  Vm (uM min-1 (mg of protein)-1): 9.8

## Cc1cn([C@H]2C[C@H](O)[C@@H](COP(=O)(O)O)O2)c(=O)[nH]c1=O
  Vm (uM min-1 (mg of protein)-1): 10.6

## O=c1ccn([C@H]2C[C@H](O)[C@@H](COP(=O)(O)O)O2)c(=O)[nH]1
  Vm (uM min-1 (mg of protein)-1): 3.5

## O=c1[nH]c(=O)n([C@H]2C[C@H](O)[C@@H](COP(=O)(O)O)O2)cc1F
  Vm (uM min-1 (mg of protein)-1): 4.7

## Cc1cn([C@H]2C[C@H](F)[C@@H](COP(=O)(O)O)O2)c(=O)[nH]c1=O
  Vm (uM min-1 (mg of protein)-1): 0.11

## O=c1[nH]c(=O)n([C@H]2C[C@H](O)[C@@H](COP(=O)(O)O)O2)cc1I
  Vm (uM min-1 (mg of protein)-1): 7.5

## Cc1cn(-c2ccc(COP(=O)(O)O)o2)c(=O)[nH]c1=O
  Vm (uM min-1 (mg of protein)-1): 0.16
